Results: PubChem BioAssay AID1963965 (Molecular Pharmacology Branch, DTP, NCI, 2024)
Several values for one entry are separate records, joined by “and”; a condition that tells them apart may be missing. Equal entries are not always repeated.

Tested on: 996289-038-R-J1-PDC spheroid viability
Test: Anticancer human tumor 996289-038-R-J1-PDC patient-derived colon adenocarcinoma cell line growth inhibition [PI3K]
Settings: spheroids with HUVEC and MSC; for viability, T/C: stronger effect = lower value
Method in brief: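 Tumor cells grown as multi-cell spheroids with HUVEC endothelial cells and MSC fibroblast-like stroma were treated with targeted agents combined with inavolisib, alpelisib, duvelisib or copanlisib. Doses fell in half-log steps from near clinical Cmax, else from 10 microM. Viability was measured.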

[1] = curve of first compound, second compound 0.0316 µM
[2] = curve of first compound, second compound 0.1 µM
[3] = curve of first compound, second compound 0.316 µM
[4] = curve of first compound, second compound 1 µM
[5] = curve of first compound, second compound 3.16 µM
[6] = curve of first compound, second compound 10 µM
[7] = second compound 0.0316 µM, first compound 0.00316 µM
[8] = second compound 0.0316 µM, first compound 0.01 µM
[9] = second compound 0.0316 µM, first compound 0.0316 µM
[10] = second compound 0.0316 µM, first compound 0.1 µM
[11] = second compound 0.0316 µM, first compound 0.316 µM
[12] = second compound 0.0316 µM, first compound 1 µM
[13] = second compound 0.1 µM, first compound 0.00316 µM
[14] = second compound 0.1 µM, first compound 0.01 µM
[15] = second compound 0.1 µM, first compound 0.0316 µM
[16] = second compound 0.1 µM, first compound 0.1 µM
[17] = second compound 0.1 µM, first compound 0.316 µM
[18] = second compound 0.1 µM, first compound 1 µM
[19] = second compound 0.316 µM, first compound 0.00316 µM
[20] = second compound 0.316 µM, first compound 0.01 µM
[21] = second compound 0.316 µM, first compound 0.0316 µM
[22] = second compound 0.316 µM, first compound 0.1 µM
[23] = second compound 0.316 µM, first compound 0.316 µM
[24] = second compound 0.316 µM, first compound 1 µM
[25] = second compound 1 µM, first compound 0.00316 µM
[26] = second compound 1 µM, first compound 0.01 µM
[27] = second compound 1 µM, first compound 0.0316 µM
[28] = second compound 1 µM, first compound 0.1 µM
[29] = second compound 1 µM, first compound 0.316 µM
[30] = second compound 1 µM, first compound 1 µM
[31] = second compound 3.16 µM, first compound 0.00316 µM
[32] = second compound 3.16 µM, first compound 0.01 µM
[33] = second compound 3.16 µM, first compound 0.0316 µM
[34] = second compound 3.16 µM, first compound 0.1 µM
[35] = second compound 3.16 µM, first compound 0.316 µM
[36] = second compound 3.16 µM, first compound 1 µM
[37] = second compound 10 µM, first compound 0.00316 µM
[38] = second compound 10 µM, first compound 0.01 µM
[39] = second compound 10 µM, first compound 0.0316 µM
[40] = second compound 10 µM, first compound 0.1 µM
[41] = second compound 10 µM, first compound 0.316 µM
[42] = second compound 10 µM, first compound 1 µM
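Further: spheroids exposed to compounds for seven days before viability read.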
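Wherever viability, T/C is given: luminescence used as a proxy for viable cell amount; percent viability relative to DMSO vehicle control as 100%.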

CCN1CCN(Cc2ccc(Nc3ncc(F)c(-c4cc(F)c5nc(C)n(C(C)C)c5c4)n3)nc2)CC1 + CC(Nc1ncnc2nc[nH]c12)c1cc2cccc(Cl)c2c(=O)n1-c1ccccc1
IC50 [1]: > 1000 nM | IC50 [2]: > 1000 nM | IC50 [3]: > 1000 nM | IC50 [4]: > 1000 nM | IC50 [5]: > 1000 nM | IC50 [6]: > 1000 nM | viability, T/C [7]: 111% | viability, T/C [8]: 94.2% | viability, T/C [9]: 92.2% | viability, T/C [10]: 87.1% | viability, T/C [11]: 79% | viability, T/C [12]: 74.1% | viability, T/C [13]: 102% | viability, T/C [14]: 96.4% | viability, T/C [15]: 91.8% | viability, T/C [16]: 86.7% | viability, T/C [17]: 76.7% | viability, T/C [18]: 80% | viability, T/C [19]: 96.2% | viability, T/C [20]: 93.7% | viability, T/C [21]: 89.1% | viability, T/C [22]: 80.3% | viability, T/C [23]: 75% | viability, T/C [24]: 80.4% | viability, T/C [25]: 104% | viability, T/C [26]: 88.5% | viability, T/C [27]: 86% | viability, T/C [28]: 79.8% | viability, T/C [29]: 76.8% | viability, T/C [30]: 70.7% | viability, T/C [31]: 98.1% | viability, T/C [32]: 105% | viability, T/C [33]: 79.4% | viability, T/C [34]: 86.6% | viability, T/C [35]: 81% | viability, T/C [36]: 68.8% | viability, T/C [37]: 82% | viability, T/C [38]: 76% | viability, T/C [39]: 82.4% | viability, T/C [40]: 74.3% | viability, T/C [41]: 71% | viability, T/C [42]: 58.6%

CCN1CCN(Cc2ccc(Nc3ncc(F)c(-c4cc(F)c5nc(C)n(C(C)C)c5c4)n3)nc2)CC1 + Cc1nc(NC(=O)N2CCCC2C(N)=O)sc1-c1ccnc(C(C)(C)C(F)(F)F)c1
IC50 [1]: > 1000 nM | IC50 [2]: > 1000 nM | IC50 [3]: > 1000 nM | IC50 [4]: > 1000 nM | IC50 [5]: 37.6 nM | IC50 [6]: < 3.16 nM | viability, T/C [7]: 84.2% | viability, T/C [8]: 72% | viability, T/C [9]: 83.4% | viability, T/C [10]: 78.7% | viability, T/C [11]: 72.7% | viability, T/C [12]: 79.7% | viability, T/C [13]: 89.8% | viability, T/C [14]: 83% | viability, T/C [15]: 79.7% | viability, T/C [16]: 75.4% | viability, T/C [17]: 75.2% | viability, T/C [18]: 67.3% | viability, T/C [19]: 85.9% | viability, T/C [20]: 74.4% | viability, T/C [21]: 70.7% | viability, T/C [22]: 63% | viability, T/C [23]: 63.1% | viability, T/C [24]: 59.2% | viability, T/C [25]: 75.8% | viability, T/C [26]: 74.2% | viability, T/C [27]: 56.7% | viability, T/C [28]: 54.8% | viability, T/C [29]: 58.4% | viability, T/C [30]: 50.9% | viability, T/C [31]: 51.4% | viability, T/C [32]: 56.2% | viability, T/C [33]: 51.4% | viability, T/C [34]: 46.1% | viability, T/C [35]: 43.7% | viability, T/C [36]: 44.2% | viability, T/C [37]: 37.5% | viability, T/C [38]: 40% | viability, T/C [39]: 33.9% | viability, T/C [40]: 33.6% | viability, T/C [41]: 29.6% | viability, T/C [42]: 27.9%

CC(=O)c1c(C)c2cnc(Nc3ccc(N4CCNCC4)cn3)nc2n(C2CCCC2)c1=O
viability, T/C (compound 0.000316 µM): 104% [middle of 4 runs] | viability, T/C (compound 0.001 µM): 96.8% [middle of 4 runs] | viability, T/C (compound 0.01 µM): 95.5% [middle of 4 runs] | viability, T/C (compound 0.0316 µM): 96% and 101% (2×) and 91.4% | viability, T/C (compound 0.1 µM): 87.6% [middle of 4 runs] | IC50 (curve of compound): > 100 nM
